Laboratory results: patent US20240264161A1, “BIOMARKERS AND USES THEREOF” (MetaCurUm Biotech AB, priority 2021, published 2024)
One block for each molecule: values may come before it.

Columns and labels:
TβRI = assay: Immunoblotting of AURKB phosphorylation after TβRI kinase inhibition; assay type: cell-based, human; details: PC-3U cells treated or not with SB505124 and TGFβ for 30 minutes
Experimental: (A, B and D) Immunofluorescence experiments showing co-localization of AURKB (green) and TβRI (V22, red) during mitosis in human prostate cancer (PC-3U) (A) and human neuroblastoma (KELLY) (B) cells, and of TβRI (V22, green) and β-tubulin (red) throughout the PC-3U mitosis (D). Scale bar, 20 μm. (C) Localization of survivin (green) and TβRI (V22, red) in PC-3U cells throughout the mitosis (E) Decreased co-localization of TβRI and AURKB after treatment of PC-3U cells on ice for 30 min. Scale bar, 20 μm. (F) Representative confocal images showing the localization of green fluorescent protein (GFP)-VPS4A (green) and β-tubulin (red) with or without knockdown of TβRI by siRNA, or treatment with the TβRI kinase inhibitor SB505124. Scale bar, 5 μm. (G) Multinucleated cells were counted after knockdown of TGFBR1. Data presented as mean±SEM, N=3 [Student's t-test, *P<0.05]. Scale bar, 20 μm. […] (J) PC-3U cells were treated or not with SB505124 and TGFβ for 30 minutes, after which cell lysates were analyzed by immunoblotting. […]
Cells were washed twice with ice-cold phosphate-buffered saline (PBS) and lysed in ice-cold lysis buffer [150 mM NaCl, 50 mM Tris, pH 8.0, 0.5% (v/v) deoxycholate, 1% (v/v) NP40, 10% (v/v) glycerol and protease inhibitors]. After centrifugation, the supernatants were collected, and protein concentrations determined using the BCA Protein Assay Kit (ThermoFisher Scientific). […]

PC-3U cells = assay: Confocal imaging of abscission (GFP-VPS4A and β-tubulin); assay type: cell-based, human
Experimental: (A, B and D) Immunofluorescence experiments showing co-localization of AURKB (green) and TβRI (V22, red) during mitosis in human prostate cancer (PC-3U) (A) and human neuroblastoma (KELLY) (B) cells, and of TβRI (V22, green) and β-tubulin (red) throughout the PC-3U mitosis (D). Scale bar, 20 μm. (C) Localization of survivin (green) and TβRI (V22, red) in PC-3U cells throughout the mitosis (E) Decreased co-localization of TβRI and AURKB after treatment of PC-3U cells on ice for 30 min. Scale bar, 20 μm. (F) Representative confocal images showing the localization of green fluorescent protein (GFP)-VPS4A (green) and β-tubulin (red) with or without knockdown of TβRI by siRNA, or treatment with the TβRI kinase inhibitor SB505124. Scale bar, 5 μm. (G) Multinucleated cells were counted after knockdown of TGFBR1. Data presented as mean±SEM, N=3 [Student's t-test, *P<0.05]. Scale bar, 20 μm. […] The gene sets are ordered by normalized enrichment score. Color indicates the adjusted p-value. (I) GSEA plots of the hallmark mitotic spindle (left) and G2/M checkpoint (right) gene sets show their strong association with TGFBR1-correlated genes. […] (J) PC-3U cells were treated or not with SB505124 and TGFβ for 30 minutes, after which cell lysates were analyzed by immunoblotting. […]

[1] = target: T1, Flag-tagged wild-type AURKB
T1 chain: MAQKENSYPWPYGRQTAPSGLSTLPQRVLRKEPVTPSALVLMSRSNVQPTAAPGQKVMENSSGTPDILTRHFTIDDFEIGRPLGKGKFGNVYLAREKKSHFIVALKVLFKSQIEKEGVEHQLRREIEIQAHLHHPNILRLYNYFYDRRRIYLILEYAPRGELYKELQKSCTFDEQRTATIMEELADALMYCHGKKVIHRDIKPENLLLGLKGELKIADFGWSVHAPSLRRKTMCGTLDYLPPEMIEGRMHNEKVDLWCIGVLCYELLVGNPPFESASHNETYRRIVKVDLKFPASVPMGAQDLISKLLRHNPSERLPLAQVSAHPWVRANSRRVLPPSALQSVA

[2] = target: T2, glutathione-S-transferase (GST)-TβRI, P36897
T2 chain: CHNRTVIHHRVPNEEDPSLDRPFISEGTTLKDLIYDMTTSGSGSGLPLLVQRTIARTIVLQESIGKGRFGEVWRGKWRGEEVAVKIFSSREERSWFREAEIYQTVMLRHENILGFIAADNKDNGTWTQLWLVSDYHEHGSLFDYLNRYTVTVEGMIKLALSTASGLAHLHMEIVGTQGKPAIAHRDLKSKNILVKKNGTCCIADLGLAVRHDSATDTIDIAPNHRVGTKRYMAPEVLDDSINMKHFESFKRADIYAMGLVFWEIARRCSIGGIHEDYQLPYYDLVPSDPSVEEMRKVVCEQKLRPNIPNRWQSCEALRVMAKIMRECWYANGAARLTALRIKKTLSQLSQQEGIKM

- AURKB phosphorylation (TβRI): suppressed AURKB phosphorylation
Molecule: Cc1cccc(-c2[nH]c(C(C)(C)C)nc2-c2ccc3c(c2)OCO3)n1 [SB505124]
- effect on abscission (PC-3U cells): did not affect the abscission

B1: TNF receptor associated factor 6 (TRAF6), endogenous in PC-3U cells (protein)
chain: MSLLNCENSCGSSQSESDCCVAMASSCSAVTKDDSVGGTASTGNLSSSFMEEIQGYDVEFDPPLESKYECPICLMALREAVQTPCGHRFCKACIIKSIRDAGHKCPVDNEILLENQLFPDNFAKREILSLMVKCPNEGCLHKMELRHLEDHQAHCEFALMDCPQCQRPFQKFHINIHILKDCPRRQVSCDNCAASMAFEDKEIHDQNCPLANVICEYCNTILIREQMPNHYDLDCPTAPIPCTFSTFGCHEKMQRNHLARHLQENTQSHMRMLAQAVHSLSVIPDSGYISEVRNFQETIHQLEGRLVRQDHQIRELTAKMETQSMYVSELKRTIRTLEDKVAEIEAQQCNGIYIWKIGNFGMHLKCQEEEKPVVIHSPGFYTGKPGYKLCMRLHLQLPTAQRCANYISLFVHTMQGEYDSHLPWPFQGTIRLTILDQSEAPVRQNHEEIMDAKPELLAFQRPTIPRNPKGFGYVTFMHLEALRQRTFIKDDTLLVRCEVSTRFDMGSLRREGFQPRSTDAGV
- polyubiquitination of AURKB (Flag IP, HA-ubiquitin immunoblot, with or without TRAF6 siRNA) [1]: Knockdown of TRAF6 by siRNA in PC-3U cells suppressed polyubiquitination of AURKB

B2: His-AURKB (protein)
chain: MAQKENSYPWPYGRQTAPSGLSTLPQRVLRKEPVTPSALVLMSRSNVQPTAAPGQKVMENSSGTPDILTRHFTIDDFEIGRPLGKGKFGNVYLAREKKSHFIVALKVLFKSQIEKEGVEHQLRREIEIQAHLHHPNILRLYNYFYDRRRIYLILEYAPRGELYKELQKSCTFDEQRTATIMEELADALMYCHGKKVIHRDIKPENLLLGLKGELKIADFGWSVHAPSLRRKTMCGTLDYLPPEMIEGRMHNEKVDLWCIGVLCYELLVGNPPFESASHNETYRRIVKVDLKFPASVPMGAQDLISKLLRHNPSERLPLAQVSAHPWVRANSRRVLPPSALQSVA
- in vitro kinase assay (phosphorylation of GST-TβRI) [2]: His-AURKB phosphorylated glutathione-S-transferase (GST)-TβRI in an in vitro kinase assay
